Results reported in US8815928B2, “Hepatitis C virus inhibitors” (priority 2009, dated 2014).

Tested on: HCV 1b genotype replicon
Assay: HCV genotype-1b replicon assay (qRT-PCR or luciferase)
Type: cell-based
Settings: Hepatitis C virus, read-out: Genotype-1b replicon EC50 Range
Excerpt: HCV replicon cell lines (kindly provided by R. Bartenschlager) isolated from colonies as described by Lohman et. al. (Lohman et al. (1999) Science 285: 110-113, expressly incorporated by reference in its entirety) and used for all experiments. The HCV replicon has the nucleic acid sequence set forth in EMBL Accession No.: AJ242651, the coding sequence of which is from nucleotides 1801 to 8406.
The coding sequence of the published HCV replicon was synthesized and subsequently assembled in a modified plasmid pBR322 (Promega, Madison, Wis.) using standard molecular biology techniques. […]
EC50 values of single agent compounds and combinations were determined by HCV RNA detection using quantitative RT-PCR, according to the manufacturer's instructions, with a TAQMAN® One-Step RT-PCR Master Mix Reagents Kit (Cat# AB 4309169, Applied Biosystems) on an ABI Model 7500 thermocycler. The TaqMan primers used for detecting and quantifying HCV RNA were obtained from Integrated DNA Technologies. HCV RNA was normalized to GAPDH RNA levels in drug-treated cells, which was detected and quantified using the Human GAPDH Endogenous Control Mix (Applied Biosystems, AB 4310884E). […] Chemical agent cytotoxicity was evaluated using an MTS assay according to the manufacturer's directions (Promega). […]

COC(=O)N[C@H](C(=O)N1CCC[C@H]1C(=O)Nc1ncc(-c2ccc3cc(-c4cnc([C@@H]5CCCN5C(=O)[C@@H](NC(=O)OC)C(C)C)[nH]4)ccc3c2)cn1)C(C)C [Compound 348]
EC50: 1 to 10 nM
